Laboratory results: patent US11306095B2 (EAST CHINA UNIVERSITY OF SCIENCE AND TECHNOLOGY, priority 2015, dated 2022)
Converted amounts (≈) assume the structure as drawn.

Experiments:
[1] = system: A431 cells (EGFR wild type); assay: Inhibitory activity on cell proliferation, A431; type: cell-based; details: Homo sapiens, A-431; A431, 72 hours; read-out: Inhibitory activity on proliferation of cells (IC50, μM) A431
Procedure: (§1) Cell proliferation activity was assessed by MTS assay. Cells were exposed to processing conditions for 72 hours and the number of cells used in each experiment for each cell line was adjusted based on absorbance values (absorbance values at 490 nm, 1.3-2.2). Six concentration gradients (0.1 nM-10 μM) were set for the compounds to be tested, wherein at least 6 sets of parallel controls for each concentration were used.
(§2) H1975, A431 cells were cultured in corresponding media, and cells were passaged at least twice after resuscitation and then used for experiments. Cells at Log phase were trypsinized and resuspended in culture medium. H1975 (1000 cells per well), A431 (2000 cells per well) were seeded in 96-well plates in a volume of 100 μL; and 6 sets of parallel controls and 7 columns were set. The plate was placed in a 37° C. 5% CO2 incubator overnight. Compounds were dissolved in DMSO to a concentration of […], and then the concentration was gradually diluted to 10 μM, 1 μM, 0.1 μM, 0.01 μM, 0.001 μM, 0.0001 μM per liter, respectively. 2 μL of the compound solution was added to 998 μL of medium, and the mixture was thoroughly mixed. 100 μL of the mixture was added to a 96-well plate. […] After culturing for 68 hours, 20 μL of MTT (5 mg/mL) was added. After 4 hours, the supernatant was discarded and 150 μL of DMSO was added. After shaking for 10 minutes, the plate was read with Synergy HT (Bio TeK) (OD490). Data were calculated using GraphPad Prism version 4.0 and IC50 values were obtained using a non-linear regression model of dose response curve.

[2] = molecular target: T1, Wild type EGFR (Homo sapiens, UniProt P00533); assay: Kinase activity test (FRET), wild type EGFR; type: biochemical; details: wild type EGFR; read-out: Inhibitory activity of EGFR on kinase (IC50, nM) WT
T1 construct: purchased Invitrogen PV3872
T1 sequence (P00533 25-1210): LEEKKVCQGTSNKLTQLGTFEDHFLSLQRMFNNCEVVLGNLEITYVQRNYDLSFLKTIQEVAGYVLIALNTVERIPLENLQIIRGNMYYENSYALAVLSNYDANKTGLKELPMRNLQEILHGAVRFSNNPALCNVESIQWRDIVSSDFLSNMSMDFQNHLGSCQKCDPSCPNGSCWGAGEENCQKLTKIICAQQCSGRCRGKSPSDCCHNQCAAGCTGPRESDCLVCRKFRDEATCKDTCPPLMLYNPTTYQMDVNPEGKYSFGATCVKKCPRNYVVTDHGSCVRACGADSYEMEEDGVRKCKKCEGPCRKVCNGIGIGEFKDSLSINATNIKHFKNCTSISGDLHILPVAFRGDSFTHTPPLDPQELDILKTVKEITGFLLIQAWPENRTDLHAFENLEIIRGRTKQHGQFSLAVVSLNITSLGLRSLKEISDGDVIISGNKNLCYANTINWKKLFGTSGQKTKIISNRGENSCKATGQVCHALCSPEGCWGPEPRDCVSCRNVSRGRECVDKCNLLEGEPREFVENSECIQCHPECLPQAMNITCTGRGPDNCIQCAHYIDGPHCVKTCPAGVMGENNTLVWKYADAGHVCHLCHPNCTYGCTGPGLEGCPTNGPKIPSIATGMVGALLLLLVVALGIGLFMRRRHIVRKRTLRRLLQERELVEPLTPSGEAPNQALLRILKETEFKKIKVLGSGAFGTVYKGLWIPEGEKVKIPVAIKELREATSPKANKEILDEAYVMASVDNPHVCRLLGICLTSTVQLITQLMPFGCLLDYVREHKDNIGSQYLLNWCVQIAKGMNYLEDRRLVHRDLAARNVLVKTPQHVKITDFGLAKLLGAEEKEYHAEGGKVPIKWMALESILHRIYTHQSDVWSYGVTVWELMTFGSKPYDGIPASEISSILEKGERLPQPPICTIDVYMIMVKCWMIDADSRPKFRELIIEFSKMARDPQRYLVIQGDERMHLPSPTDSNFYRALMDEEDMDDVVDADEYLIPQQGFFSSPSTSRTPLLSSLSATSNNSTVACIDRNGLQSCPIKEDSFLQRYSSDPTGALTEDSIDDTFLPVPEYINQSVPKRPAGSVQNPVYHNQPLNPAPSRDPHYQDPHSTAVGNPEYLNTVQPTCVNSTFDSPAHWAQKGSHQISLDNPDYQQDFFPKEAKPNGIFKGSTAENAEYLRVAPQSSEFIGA
Procedure: (§3) EGFR-TK catalyses transfer of one phosphate group of adenosine triphosphate (ATP) to polypeptide substrate, poly(Glu, Tyr)4:1, which is labeled with two fluorescent groups coumarin and fluorescein.
(§4) 2.5 μL of Test Compounds, 5 μL Kinase/Peptide Substrate Mixture, 2.5 μL ATP Solution were added into a 384-well plate, and the 10 μL of reaction system was shaken for 30 s and incubated at room temperature for 1 h. 5 μL of Development Solution was added and the 15 μL of reaction system was shaken for 30 s, and incubated at room temperature for 1 h. […] The inhibitory rates of the compounds at 7 concentration gradients were determined and the IC50 value for each compound was calculated by Origin 8.0 fitting curve.
(§5) 10 concentration gradients from 5.1×10^−11 mol/L to 1.0×10^−6 mol/L were set for all compounds to be tested.
(§6) Compounds were diluted in DMSO for three times from 5.1×10^−9 M to 1×10^−4 M. 4 μL of the compound was dissolved in 96 μL of water to obtain a 4× compound solution. […] The 10 μL kinase reaction consisted of 2.5 μL compound solution, 5 μL kinase/peptide mix, 2.5 μL ATP solution. […] 5 μL of phosphorylated peptide solution, instead of the kinase/peptide mixture, was used as a 100% phosphorylation control. […] The plates were thoroughly mixed and incubated at room temperature for 1.5 hours. 5 μL of Development Solution was added into each well and then incubated for another 1 hour at room temperature, unphosphorylated peptides were cleaved during this period. Finally, 5 μL Stop Reagent was added to quench the reaction. The plates were measured with EnVision Multilabel Reader (Perkin Elmer). The experimental data were calculated using GraphPad Prism version 4.0. Each experiment was repeated more than 3 times.

[3] = Determination of solubility in water (PBS 20 mM, pH 6.8); type: physicochemical; details: PBS buffer, aqueous buffer, thermodynamic from solid; pH 6.8, 20 mM PBS; read-out: Solubility (pH 6.8, g/mL)
Procedure: The suspension was filtered through a 0.22 μm PVDF filter, and then diluted to an appropriate concentration with methanol (v=50%) and PBS (v=50%), and the absorbance was measured by a UV spectrophotometer. About 3 mg of compound was accurately weighed, and methanol was added for preparing a stock solution of 1 mg/mL. The above stock solution was taken and prepared into a solution at concentrations of 0.05, 0.04, 0.03, 0.02 and 0.01 mg/mL, respectively, PBS solution (v=50%) was added and the absorbance value was measured. Concentration c (mg/mL) as horizontal ordinate vs absorbance A as longitudinal coordinate was plotted, and a line was fitted for obtaining a standard curve (correlation coefficient greater than 0.998). The solubility of a compound in water was calculated from the standard curve.

[4] = molecular target: T2, EGFR-L858R/T790M (Homo sapiens, UniProt P00533, L858R/T790M); assay: Kinase activity test (FRET), EGFR T790M/L858R; type: biochemical; details: EGFR T790M/L858R; read-out: Inhibitory activity of EGFR on kinase (IC50, nM) T790M/L858R
T2 construct: purchased Invitrogen PV4879
T2 sequence (P00533 25-1210 T790M/L858R): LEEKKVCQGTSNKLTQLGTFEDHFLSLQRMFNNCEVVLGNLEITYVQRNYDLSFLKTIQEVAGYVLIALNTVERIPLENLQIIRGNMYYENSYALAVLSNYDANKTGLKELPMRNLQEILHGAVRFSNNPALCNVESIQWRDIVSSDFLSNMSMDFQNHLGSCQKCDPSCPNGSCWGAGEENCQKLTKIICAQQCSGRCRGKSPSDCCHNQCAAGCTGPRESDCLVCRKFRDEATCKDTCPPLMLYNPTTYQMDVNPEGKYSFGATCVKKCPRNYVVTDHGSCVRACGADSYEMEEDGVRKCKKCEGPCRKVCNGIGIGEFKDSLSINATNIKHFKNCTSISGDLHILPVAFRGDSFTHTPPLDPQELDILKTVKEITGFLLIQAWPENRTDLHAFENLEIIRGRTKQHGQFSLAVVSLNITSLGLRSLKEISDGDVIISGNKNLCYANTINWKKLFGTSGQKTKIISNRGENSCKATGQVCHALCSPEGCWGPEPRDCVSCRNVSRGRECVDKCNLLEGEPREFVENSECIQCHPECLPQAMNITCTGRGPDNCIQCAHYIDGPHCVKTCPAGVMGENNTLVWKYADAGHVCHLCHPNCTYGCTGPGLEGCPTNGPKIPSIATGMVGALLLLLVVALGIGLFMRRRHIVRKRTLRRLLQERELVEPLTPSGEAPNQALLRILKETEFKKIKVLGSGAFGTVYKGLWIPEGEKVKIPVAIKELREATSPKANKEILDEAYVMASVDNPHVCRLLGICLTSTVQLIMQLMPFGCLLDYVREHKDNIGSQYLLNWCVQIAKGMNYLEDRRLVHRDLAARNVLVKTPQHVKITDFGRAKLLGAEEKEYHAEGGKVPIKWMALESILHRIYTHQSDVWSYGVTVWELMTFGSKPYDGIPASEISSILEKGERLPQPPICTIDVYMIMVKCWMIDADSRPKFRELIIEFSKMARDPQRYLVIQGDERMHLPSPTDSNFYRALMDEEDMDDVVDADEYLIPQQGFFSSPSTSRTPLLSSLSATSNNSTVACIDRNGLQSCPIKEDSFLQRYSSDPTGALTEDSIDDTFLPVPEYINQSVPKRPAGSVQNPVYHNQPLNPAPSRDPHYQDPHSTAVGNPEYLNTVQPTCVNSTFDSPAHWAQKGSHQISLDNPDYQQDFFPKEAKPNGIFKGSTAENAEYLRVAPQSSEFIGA
Procedure: as §3, §4, §5, §6

[5] = system: H1975 cells (EGFR L858R/T790M); assay: Inhibitory activity on cell proliferation, H1975; type: cell-based; details: Homo sapiens, NCI-H1975; H1975, 72 hours; read-out: Inhibitory activity on proliferation of cells (IC50, μM) H1975
Procedure: as §1, §2

| IC50 [1] [µM] | IC50 [2] [nM] | solubility [3] [µg/mL] | IC50 [4] [nM] | melting point [°C] | IC50 [5] [µM] | Structure (SMILES) |
| --- | --- | --- | --- | --- | --- | --- |
| 2.81 | 23.4 | 163 (≈ 300 µM) | 20.8 | 187.3 to 188.1 | 1.04 | C=CC(=O)Nc1cccc(-n2c(=O)cnc3cnc(Nc4ccc(N5CCN(C)CC5)cc4OCOC)nc32)c1 [Compound 9, N-(3-(2-((2-(methoxymethoxy)-4-(4-methyl-1-piperazinyl)phenyl)amino)-7-oxo-8(7H)-pteridinyl)phenyl)acrylamide] |
| > 10 | > 10000 | 3970 (≈ 6730 µM) | > 10000 |  | 8.38 | COc1cc(N2CCN(C)CC2)ccc1Nc1ncc2nc(C(C)C)c(=O)n([C@H]3CCN(C(=O)/C=C/CN(C)C)C3)c2n1 [Compound 28] |
| 1.6 | 177 | 438 (≈ 720 µM) | 791 |  | 3.09 | Cc1cc(Nc2ncc3nc(-c4ccccc4)c(=O)n([C@H]4CCN(C(=O)/C=C/CN(C)C)C4)c3n2)ccc1N1CCN(C)CC1 [Compound 29, (S,E)-8-(1-(4-(dimethylamino)-2-butenoyl)-3-pyrrolidinyl)-2-((3-methyl-4-(4-methyl-1-piperazinyl)phenyl)amino)-6-phenyl-7(8H)-pteridinone] |
| > 10 | > 1000 | > 10 | > 1000 | 157.3 to 157.6 | 8.69 | COc1cc(N2CCN(C)CC2)ccc1Nc1ncc2ncc(=O)n(C3CCN(C(=O)/C=C/CN(C)C)CC3)c2n1 [Compound 30, (E)-8-(1-(4-(dimethylamino)-2-butenoyl)-4-piperidinyl)-2-((2-methoxy-4-(4-methyl-1-piperazinyl)phenyl)amino)-7(8H)pteridinone] |
| > 10 | 522 | 63.3 (≈ 101 µM) | 9 | 253.1 to 254 | 2.16 | COc1cc(N2CCN(C)CC2)ccc1Nc1ncc2nc(-c3ccccc3)c(=O)n([C@H]3CCN(C(=O)/C=C/CN(C)C)C3)c2n1 [Compound 31] |
| 2.75 | 1.3 | < 10 | 7.1 | 249 to 249.5 | 0.033 | C=CC(=O)Nc1cccc(-n2c(=O)c(C(C)C)nc3cnc(Nc4ccc(N5CCN(C)CC5)c(OC)c4)nc32)c1 [Compound 32, N-(3-(6-isopropyl-2-((3-methoxy-4-(4-methyl-1-piperazinyl)phenyl)amino)-7-oxo-8(7H)pteridinyl)phenyl)acrylamide] |
| 3.68 | 33 | 24.5 (≈ 42.2 µM) | 1.3 | > 300 | 0.23 | C=CC(=O)Nc1cccc(-n2c(=O)c(C(F)(F)F)nc3cnc(Nc4ccc(N5CCN(C)CC5)c(OC)c4)nc32)c1 [Compound 33, N-(3-(2-((3-methoxy-4-(4-methyl-1-piperazinyl)phenyl)amino)-7-oxo-6-(trifluoromethyl)-8(7H)-pteridinyl)phenyl)acrylamide] |
| > 10 | 86.7 | 223 (≈ 470 µM) | 896 | 215.5 to 215.7 | 0.831 | C=CC(=O)N1CC[C@H](n2c(=O)cnc3cnc(Nc4ccc(N5CCN(C)CC5)c(C)c4)nc32)C1 [Compound 34, (S)-8-(1-acryloyl-3-pyrrolidinyl)-2-((3-methyl-4-(4-methyl-1-piperazinyl)phenyl)amino)-7(8H)pteridinone] |
| 0.225 | 20.1 | 63.3 (≈ 112 µM) | 17.5 | 208.3 to 208.8 | 0.378 | C=CC(=O)N1CC[C@H](n2c(=O)c(-c3ccccc3)nc3cnc(Nc4ccc(N5CCN(C)CC5)c(OC)c4)nc32)C1 [Compound 35, (S)-8-(1-acryloyl-30pyrrolidinyl)-2-((3-methoxy-4(4-methyl-1-piperazinyl)phenyl)amino)-6-phenyl-7(8H)pteridinone] |
| 9.6 | > 1000 | 737 (≈ 1280 µM) | > 1000 | 159.9 to 160.7 | 2.2 | Cc1cc(Nc2ncc3nc(C(C)C)c(=O)n([C@H]4CCN(C(=O)/C=C/CN(C)C)C4)c3n2)ccc1N1CCN(C)CC1 [Compound 36, (S,E)-8-(1-(4-(dimethylamino)-2-butenoyl)3-pyrrolidinyl)-2-((3-methyl-4-(4-methyl-1-piperazinyl)phenyl)amino)-6-isopropyl-7(8H)pteridinone] |
| 3.23 | 26 | < 10 | 4.9 |  | 0.074 | C=CC(=O)Nc1cccc(-n2c(=O)c(C(C)C)nc3cnc(Nc4ccc(N5CCN(C)CC5)cc4OC)nc32)c1 [Compound 37, N-(3-(6-isopropyl-2-((2-methoxy-4-(4-methyl-1-piperazinyl)phenyl)amino)-7-oxo-8(7H)pteridinyl)phenyl)acrylamide] |
| 2.35 | 2.8 | < 10 | 0.6 | 292.9 to 293.4 | 0.165 | C=CC(=O)Nc1cccc(-n2c(=O)c(-c3ccccc3)nc3cnc(Nc4cc(C)c(N5CCN(C)CC5)cc4OC)nc32)c1 [Compound 38, N-(3-(2-((2-methoxy-5-methyl-4-(4-methyl-1-piperazinyl)phenyl)amino)-7-oxo-6-phenyl-8(7H)pteridinonyl)phenyl)acrylamide] |
| 0.433 | 7.7 | < 10 | 0.6 |  | 0.112 | C=CC(=O)Nc1cccc(-n2c(=O)c(C3CCCCC3)nc3cnc(Nc4ccc(N5CCN(C)CC5)cc4OC)nc32)c1 [Compound 43, N-(3-(6-cyclohexyl-2-((2-methoxy-4-(4-methyl-1-piperazinyl)phenyl)amino)-7-oxo-8(7H)pteridinyl)phenyl)acrylamide] |
| 0.287 | 19.2 | < 10 | 14.2 |  | 0.368 | C=CC(=O)N1CCC(n2c(=O)c(-c3ccccc3)nc3cnc(Nc4ccc(N5CCN(C)CC5)c(C)c4)nc32)C1 (stereo not shown) [Compound 49, 8-(1-acryloyl-3-pyrrolidinyl)-2-((3-methyl-4-(4-methyl-1-piperazinyl)phenyl)amino)-6-phenyl-7(8H)pteridinone] |
